We go through 16 molecules from ChEMBL document CHEMBL4342418, “1,2,3-Triazole-containing hybrids as potential anticancer agents: Current developments, action mechanisms and structure-activity relationships” (Eur J Med Chem, 2019).

As a reminder, the IC50 is the midpoint of a concentration-inhibition curve. The GI50 is the concentration at which growth is held to half of that of the control.

Experiment [1] concerns MCF7. Briefly: Antiproliferative activity against human MCF7 cells assessed as reduction in cell viability after 48 hrs by MTT assay. Format: functional, cell-based. Conditions: MCF7, 48 h.
A further experiment has as its system T47D. The experiment in a line: Antiproliferative activity against human T47D cells assessed as reduction in cell viability after 48 hrs by MTT assay. It counts as functional, cell-based.
The test system of another experiment is HCT-116. Briefly: Antiproliferative activity against human HCT116 cells assessed as reduction in cell viability after 48 hrs by MTT assay. It counts as functional, cell-based. The following applies: HCT-116, 48 h. On the technique in general: Formazan colour is commonly taken as a measure of viable cells.
For the next experiment, the system named is Caco-2. The experiment in a line: Antiproliferative activity against human Caco2 cells assessed as reduction in cell viability after 48 hrs by MTT assay. It counts as functional, cell-based. Conditions: Caco-2, 48 h.
In a further experiment the test system is IMR-32. Briefly: Antiproliferative activity against human IMR32 cells assessed as reduction in cell viability after 48 hrs by SRB assay. It counts as functional. The following applies: IMR-32, 48 h. A general note: In SRB staining, fixed cells bind dye roughly in proportion to their protein.
Experiment [2] concerns MCF7. Briefly: Antiproliferative activity against human MCF7 cells assessed as reduction in cell viability after 48 hrs by SRB assay. Format: functional, cell-based. Conditions: MCF7, 48 h.
The test system of experiment [3] is HepG2. Briefly: Antiproliferative activity against human HepG2 cells assessed as reduction in cell viability after 48 hrs by SRB assay. It counts as functional. The following applies: HepG2, 48 h.
Experiment [4] relates to HeLa. The experiment in a line: Antiproliferative activity against human HeLa cells assessed as reduction in cell viability after 48 hrs by SRB assay. It counts as functional.
The next experiment relates to SK-N-SH. The experiment in a line: Antiproliferative activity against human SK-N-SH cells by MTT assay. Format: functional, cell-based.
The subject of a further experiment is MGC-803. Briefly: Antiproliferative activity against human MGC803 cells by MTT assay. Format: functional, cell-based.
Experiment [5] relates to HepG2. The experiment in a line: Antiproliferative activity against human HepG2 cells by MTT assay. Format: functional, cell-based.
Experiment [6] deals with HepG2. The experiment in a line: Antiproliferative activity against human HepG2 cells by SRB assay. It counts as functional, cell-based.
The test system of experiment [7] is HeLa. Briefly: Antiproliferative activity against human HeLa cells by SRB assay. Format: functional, cell-based.
For experiment [8], the system named is MDA-MB-231. The experiment in a line: Antiproliferative activity against human MDA-MB-231 cells by SRB assay. It counts as functional.
Another experiment deals with DU-145. Briefly: Antiproliferative activity against human DU145 cells by SRB assay. It counts as functional, cell-based.
The nature of experiment [9]: Antiproliferative activity against human SMCC7721 cells assessed as reduction in cell viability after 48 hrs by MTT assay. It counts as functional, cell-based.
The subject of another experiment is SW480. The experiment in a line: Antiproliferative activity against human SW480 cells assessed as reduction in cell viability after 48 hrs by MTT assay. Format: functional, cell-based. Conditions: SW480, 48 h.
Experiment [10] has as its system A549. The experiment in a line: Antiproliferative activity against human A549 cells assessed as reduction in cell viability after 48 hrs by MTT assay. Format: functional, cell-based. The following applies: A549, 48 h.
For experiment [11], the system named is MCF7. The experiment in a line: cells. It counts as functional, cell-based. The following applies: Homo sapiens.
Description: Antiproliferative activity against human MCF7 cells by MTT assay
In experiment [12] the test system is MDA-MB-231. Briefly: Antiproliferative activity against human MDA-MB-231 cells by MTT assay. Format: functional, cell-based.
The test system of the next experiment is MCF-10A. Briefly: Cytotoxicity against human MCF10A cells by MTT assay. It counts as cell-based.
Experiment [13] has as its system MDA-MB-231. The experiment in a line: Antiproliferative activity against human MDA-MB-231 cells assessed as reduction in cell viability after 24 hrs by MTT assay. Format: functional, cell-based. The following applies: MDA-MB-231, 24 h.
The test system of the next experiment is COLO 205. The experiment in a line: Antiproliferative activity against human COLO205 cells assessed as reduction in cell viability after 24 hrs by MTT assay. Conditions: COLO 205, 24 h. It counts as functional, cell-based.
Experiment [14] relates to A549. The experiment in a line: Antiproliferative activity against human A549 cells assessed as reduction in cell viability after 24 hrs by MTT assay. Format: functional, cell-based. The following applies: A549, 24 h.
For a further experiment, the system named is KB. Briefly: Antiproliferative activity against human KB cells by MTT assay. Format: functional, cell-based.
The test system of the next experiment is PC-3. Briefly: Antiproliferative activity against human PC3 cells assessed as reduction in cell viability after 24 hrs by MTT assay. Conditions: PC-3, 24 h. It counts as functional, cell-based.
A further experiment relates to P388. The experiment in a line: Antiproliferative activity against mouse P388 cells by MTT assay. Format: functional, cell-based.
For a further experiment, the system named is K562. Briefly: Antiproliferative activity against human K562 cells assessed as reduction in cell viability after 24 hrs by MTT assay. Format: functional, cell-based. The following applies: K562, 24 h.
For the next experiment, the system named is Lu1. The experiment in a line: Antiproliferative activity against human Lu1 cells by MTT assay. Format: functional, cell-based.
In another experiment the test system is A-431. The experiment in a line: Antiproliferative activity against human A431 cells assessed as reduction in cell viability after 24 hrs by MTT assay. Format: functional, cell-based. Conditions: A-431, 24 h.
Another experiment has as its system HL-60. The experiment in a line: Antiproliferative activity against human HL60 cells by MTT assay. Format: functional, cell-based.
In experiment [15] the test system is MCF7. Briefly: Antiproliferative activity against human MCF7 cells assessed as reduction in cell viability after 72 hrs by MTT assay. It counts as functional, cell-based. The following applies: MCF7, 72 h.
The next experiment has as its system HT-29. The experiment in a line: Antiproliferative activity against human HT-29 cells assessed as reduction in cell viability after 72 hrs by MTT assay. Conditions: HT-29, 72 h. It counts as functional, cell-based.

With `O=C(Cn1cc(CCCO)nn1)N1CCN(c2nc3ccccc3s2)CC1`, the IC50 in the experiment on MCF7 [1], in the experiment with T47D, in the experiment on HCT-116 and in the experiment with Caco-2 was 33 to 48 µM in each case.
Consider `Fc1ccc(-n2ncc(OCc3cn(Cc4cccc(Cl)c4)nn3)c2-c2ccc(Cl)cc2)cc1`, for which the GI50 in the experiment on IMR-32, in the experiment with MCF7 [2], with HepG2 [3] and in the experiment on HeLa [4] was 1.8 to 9.7 µM throughout.
As to `COc1cc(/C=C/C(=O)c2ccc(OCCCn3cc(CSc4nncs4)nn3)cc2)cc(OC)c1OC`, the concentration for half-maximal inhibition (IC50) with SK-N-SH, in the experiment on MGC-803 and with HepG2 [5] was 1.52 to 10.4 µM throughout.
On to `Cc1ccc(-c2nn(Cc3cn(Cc4ccccc4)nn3)c(=O)o2)cc1`, for which the GI50 in the experiment on HepG2 [6], with HeLa [7], with MDA-MB-231 [8] and in the experiment with DU-145 was 0.82 to 2.39 µM throughout.
For `COc1cc([C@@H]2c3cc4c(cc3[C@H](n3cc(CO[C@@H]5O[C@H](COC(C)(C)C)[C@@H](OC(C)(C)C)[C@H](OC(C)(C)C)[C@H]5OC(C)(C)C)nn3)[C@H]3COC(=O)[C@H]23)OCO4)cc(OC)c1OC`, the IC50 (in the experiment on MCF7 [1]; in [9]; in the experiment with SW480; with A549 [10]) was 0.49 to 6.7 µM each time.
For `Cc1c(-n2nnc(-c3nn(-c4nncc5ccccc45)cc3C=O)c2C)cccc1C(F)(F)F`, the IC50 lay in the range of 6.8 to 27.6 µM in the experiment on MCF7 [11], 6.8 to 27.6 µM with MDA-MB-231 [12] and 21.9 to 25.3 µM with MCF-10A.
For the molecule `O=C(Cn1cc(CO)nn1)N1CCN(c2nc3ccccc3s2)CC1`, the concentration for half-maximal inhibition (IC50) with MCF7 [1], in the experiment with T47D, in the experiment with HCT-116 and in the experiment with Caco-2 was 33 to 154 µM throughout.
In the case of `Cc1c(C(F)(F)F)cc(Cl)c(Cl)c1-n1nnc(-c2nn(-c3nncc4ccccc34)cc2C=O)c1C`, the half-maximal inhibitory concentration (IC50) lay in the range of 6.8 to 27.6 µM in the experiment on MCF7 [11], 6.8 to 27.6 µM in the experiment with MDA-MB-231 [12] and 21.9 to 25.3 µM in the experiment on MCF-10A.
As for `O=[N+]([O-])c1ccc(Cn2cc(COc3cnn(-c4ccc(F)cc4)c3-c3ccc(Cl)cc3)nn2)cc1`, the GI50 in the experiment on IMR-32, with MCF7 [2], in the experiment on HepG2 [3] and in the experiment with HeLa [4] was 1.8 to 9.7 µM each time.
On to `CCOC(=O)c1cn(CC(=O)N2CCN(c3nc4ccccc4s3)CC2)nn1`, for which the IC50 in the experiment with MCF7 [1], in the experiment on T47D, in the experiment with HCT-116 and with Caco-2 was 33 to 154 µM each time.
Turning to `C[C@H]1[C@@H](O)O[C@@H]2O[C@@]3(C)CC[C@H]4[C@H](C)CC[C@@H]1[C@@]24OO3` [ARTENIMOL], the IC50 is 39.9 to 84.3 µM in the experiment with MCF7 [11]; 42.4 to 52.6 µM in the experiment with MDA-MB-231 [13]; 42.4 to 52.6 µM in the experiment with COLO 205; 42.4 to 52.6 µM in the experiment on A549 [14]; 95.3 µM in the experiment with KB; 42.4 to 52.6 µM in the experiment on PC-3. Further, the IC50 was 39.9 to 84.3 µM with P388; 42.4 to 52.6 µM in the experiment on K562; 39.9 to 84.3 µM in the experiment with Lu1; 42.4 to 52.6 µM with A-431; 39.9 to 84.3 µM with HL-60; 63.7 µM in the experiment with HepG2 [5].
Regarding `C[C@H]1[C@H](OC(=O)CCC(=O)O)O[C@@H]2O[C@@]3(C)CC[C@H]4[C@H](C)CC[C@@H]1[C@@]24OO3` [ARTESUNATE], the IC50 was found to be 78.5 µM in the experiment with KB and 59.4 µM in the experiment with HepG2 [5].
For the molecule `Cc1c2ccncc2c(C)c2c1[nH]c1ccccc12` [ELLIPTECINE], the IC50 with MCF7 [11] lay in the range of 1.7 to 3.5 µM; with KB, 0.81 to 1.26 µM; with P388, 1.7 to 3.5 µM; in the experiment on Lu1 it was 1.7 to 3.5 µM; in the experiment on HL-60, 1.7 to 3.5 µM; in the experiment with HepG2 [5] it was 0.93 to 1.46 µM.
Regarding `CNC(=O)c1cc(Oc2ccc(NC(=O)Nc3ccc(Cl)c(C(F)(F)F)c3)cc2)ccn1` [SORAFENIB], the IC50 is 43.3 µM in the experiment on MCF7 [15] and 5.29 µM with HT-29.
Regarding `CN(C)CCOc1ccc(/C(=C(/CCCl)c2ccccc2)c2ccccc2)cc1` [TOREMIFENE], the IC50 was 7 µM with MCF7 [11], 13 µM in the experiment on MDA-MB-231 [12] and over 100 µM in the experiment with MCF-10A.
As to `Cc1cn([C@H]2C[C@H](N=[N+]=[N-])[C@@H](CO)O2)c(=O)[nH]c1=O` [ZIDOVUDINE], the IC50 with KB and in the experiment on HepG2 [5] was over 400 µM throughout.
